# Data: patent publication EP4635974A1, “COSMETIC COMPOSITION FOR SKIN IMPROVEMENT” (LG Household & Health Care Ltd., priority 2022, dated 2024)
# Where a SMILES comes first, the peptide text is derived from it. Where no end group is shown, it is not given here. The star is where a group is joined. Palmitoyl = CCCCCCCCCCCCCCCC(=O)*
# Key:
# [1] = molecular target: T1, Elastase derived from human leukocytes (Homo sapiens, UniProt P08246); assay: Inhibition of elastase activity (synthetic substrate, absorbance at 405 nm); assay type: biochemical; conditions: for Inhibition of elastase activity (%): 100 µg/mL
# T1 construct: Elastase derived from human leukocytes was used; from tissue; host or cells: human leukocytes
# T1 sequence (P08246 30-267): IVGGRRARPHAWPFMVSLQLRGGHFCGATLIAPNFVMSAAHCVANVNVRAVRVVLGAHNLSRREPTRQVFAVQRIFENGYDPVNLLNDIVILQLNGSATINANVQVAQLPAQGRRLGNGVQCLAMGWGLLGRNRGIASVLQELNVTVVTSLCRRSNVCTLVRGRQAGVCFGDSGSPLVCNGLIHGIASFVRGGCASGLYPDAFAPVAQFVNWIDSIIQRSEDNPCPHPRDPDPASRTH
# Experimental: (§1) In order to investigate the effect of peptide sequence variation, the activity of […] was tested as in Test Example 1 after sequence variation. Elastase derived from human leukocytes was used, and the synthetic substrate MeOSuc-Ala-Ala-Pro-Val-pNA was used as the substrate of elastase. A 100 mM Tris (pH 7.5) solution was used as a buffer solution. The elastase was diluted finally to 0.2 mU using the buffer solution. In addition, the synthetic substrate of elastase was prepared into a 100 mM solution using DMSO, and then diluted to a final concentration of 0.5 mM using a buffer solution. As a positive control group, quercetin known to inhibit elastase was used at a concentration of 10 ppm. The candidates of elastase inhibition were tested at final concentrations of 10 and 20 ppm. Reaction was conducted in a 96-well plate at room temperature for 20 minutes. The inhibition of the enzyme activity was determined by measuring absorbance at 405 nm using a spectrophotometer with 1-minute intervals, and calculating the slope of the absorbance versus time.
# (§2) The peptide sequences of SEQ ID NOS 14 to 16 were treated at 100 µg/mL, and the peptide sequence RKSLFVD was used as a control peptide sequence. The inhibition of collagenase activity (%) and the inhibition of elastase activity (%) were calculated from the relative enzyme activity versus the control group, and the result is given in Table 4.
# (§3) In order to investigate the effect of variation of the N-terminal or C-terminal of the peptide sequence, the activity of collagenase and elastase was tested after sequence variation as in Test Example 1.
# [2] = test system: acetylcholine release at the neuromuscular synapses; conditions: cited from earlier work
# [3] = test system: Collagenase derived from the mouse pancreas; assay: Inhibition of collagenase activity (synthetic substrate, absorbance at 345 nm); assay type: biochemical; conditions: 100 µg/mL
# Experimental: Collagenase derived from the mouse pancreas was used, and the synthetic substrate N-(3-[2-furyl]acryloyl)-Leu-Gly-Pro-Ala was used as the substrate of collagenase. A buffer solution in which 50 mM tricine, 10 mM CaCl2·H2O and 400 mM NaCl were dissolved (pH 7.5) was used. The synthetic substrate was dissolved in the buffer solution to a concentration of 10 mM and finally diluted to 75 µM. The collagenase was dissolved to a concentration of 1 unit/mL using cold triply distilled water at 4 °C and then finally diluted to 0.05 unit/mL using a buffer solution. The candidates of collagenase inhibition were tested at final concentrations of 25 and 50 ppm. As a positive control group, epigallocatechin gallate (EGCG) known to have the effect of inhibiting collagenase was used at a final concentration of 50 ppm. Reaction was conducted in a 96-well plate at room temperature for 10 minutes. The inhibition of the enzyme activity was determined by measuring absorbance at 345 nm using a spectrophotometer with 1-minute intervals, and calculating the maximum slope of the absorbance versus time.
# as §1, §2, §3
# [4] = Table 5, N-terminal or C-terminal variation
# [5] = Table 4, relative enzyme activity versus the control group
Compound,"inhibition at 100 µg/mL [1, 5] [%]",Inhibition of collagenase activity (%) ([3]; Table 3),other results
CC(=O)N[C@@H](CCCCN)C(=O)NCC(=O)N[C@@H](CCCNC(=N)N)C(=O)N[C@@H](CO)C(=O)N[C@@H](CO)C(=O)N[C@@H](CS)C(=O)N[C@@H](Cc1ccccc1)C(=O)N[C@H](C(=O)N[C@@H](CC(=O)O)C(=O)N[C@@H](CS)C(=O)O)C(C)C (Ac-KGRSSCFVDC-OH),,,"inhibition at 100 µg/mL [1, 4]: 71%"
CCCCCCCCCCCCCCCC(=O)N[C@@H](CCCCN)C(=O)NCC(=O)N[C@@H](CCCNC(=N)N)C(=O)N[C@@H](CO)C(=O)N[C@@H](CO)C(=O)N[C@@H](CS)C(=O)N[C@@H](Cc1ccccc1)C(=O)N[C@H](C(=O)N[C@@H](CC(=O)O)C(=O)N[C@@H](CS)C(=O)O)C(C)C (Palmitoyl-KGRSSCFVDC-OH),,,"inhibition at 100 µg/mL [1, 4]: 74.1%"
CC(C)[C@H](NC(=O)[C@H](Cc1ccccc1)NC(=O)[C@H](CS)NC(=O)[C@H](CO)NC(=O)[C@H](CO)NC(=O)[C@H](CCCNC(=N)N)NC(=O)CNC(=O)[C@@H](N)CCCCN)C(=O)N[C@@H](CC(=O)O)C(=O)N[C@@H](CS)C(N)=O [C-amine-substituted peptide of SEQ ID] (H-KGRSSCFVDC-NH2),,,"inhibition at 100 µg/mL [1, 4]: 52.6%"
Ac-Glu-Glu-Met-Gln-Arg-Arg-NH2 (Ac-EEMQRR-NH2) [Argireline],,,times weaker than Botox [2]: 5000 times
CDVFCSSRGK [SEQ ID NO 14],,,"Inhibition of collagenase activity (%) [3, 5]: 24.77%; Inhibition of elastase activity (%) [1, 5]: 68.5%"
"DVFCSSRGK [SEQ ID NO 15, DVFCSSRGK]",65.5,,
"FCSSRGK [SEQ ID NO 16, FCSSRGK]",51.5,,
"KGRSSCF [SEQ ID NO 3, KGRSSCF]",57.8,,
KGRSSCFDC [SEQ ID NO 11],,11.82,
KGRSSCFVC [SEQ ID NO 12],,13.97,
"KGRSSCFVD [SEQ ID NO 2, KGRSSCFVD]",70.9,,
KGRSSCFVDC [SEQ ID NO 1],,22.91,"Inhibition of collagenase activity (%) [3, 5]: 21.57%; Inhibition of collagenase activity (%) [3, 4]: 22.6%; Inhibition of elastase activity (%) [1, 5]: 72.1%; Inhibition of elastase activity (%) [1, 4]: 68.3%"
KGSSCFVDC [SEQ ID NO 10],,15.24,
"RKSLFVD [Control peptide sequence, RKSLFVD, reference compound]",5.2,,"inhibition at 100 µg/mL [1, 4]: 1.3%"
RSSCFVDC [SEQ ID NO 5],,12.23,
SSCFVDC [SEQ ID NO 6],,17.97,
